Active and inactive are the calls of the source. How the calls were made is not given here.
System: West Nile virus-infected cells, virus titer reduction
Test: West Nile virus yield reduction, cell-based, synthesized compounds (AID 2065)
Settings: at 20 µM (top of the series)

Row | Structure (SMILES) | log titer change, negative = inhibition
1 | COc1ccc(-c2csc(N(CCCN(C)C)C(=O)c3ccccc3Cl)n2)cc1 | -3.82
2 | O=C(CSc1nc2ccccc2c(=O)n1-c1ccc(F)cc1F)Nc1ccc(N2CCOCC2)cc1 | -4.15
3 | CCOC(=O)C1(Cc2ccccc2C(F)(F)F)CCN(C2CCN(C(C)C)CC2)CC1 | 1.18 (inactive)
4 | OC1c2cc(Br)ccc2N=C2CCCN21 (stereo not given) | -5.53
5 | CN(C)CCCNC(=S)N1CCN(c2nc(-c3ccccc3)cs2)CC1 | -2.32
6 | O=C(CSc1nc2ccccc2c(=O)n1-c1ccc(F)cc1F)Nc1ccc2c(c1)CCC2 | -3.82
7 | O=C(CSc1nc2ccccc2c(=O)n1-c1ccc(F)cc1)Nc1ccc2c(c1)CCC2 | -4.18
8 | COc1ccc(-c2csc(N(CCCN(C)C)C(=O)c3ccccc3C)n2)cc1 | -0.48 (inactive)
9 | CCN(CC)CCCNC(=S)N1CCN(c2nc(-c3ccccc3)cs2)CC1 | -5.48
10 | CN(C)CCCN1c2ccc([N+](=O)[O-])cc2CCc2cc([N+](=O)[O-])ccc21 | -3.82

From PubChem BioAssay AID2065 (Southern Research Specialized Biocontainment Screening …, 2009)
